According to ChEMBL document CHEMBL1201862, “PubChem BioAssay data set” (2004):
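Assay format: 96-well plates, 48-hour exposure. GI50 is the concentration that inhibits growth by half.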 Activity calls are given as the source filed them. No stated cut-off is given here; in the data, active = GI50 up to about 1.1 µM and inactive = higher.

Columns and labels:
Experiment in all cases: growth of human tumour cells (NCI), 48 h
786-0 = tested on: 786-0
A498 = tested on: A498
A549 = tested on: A549
ACHN = tested on: ACHN
BT-549 = tested on: BT-549
CAKI-1 = tested on: CAKI-1
CCRF-CEM = tested on: CCRF-CEM
COLO 205 = tested on: COLO 205
DU-145 = tested on: DU-145
EKVX = tested on: EKVX
HCT-116 = tested on: HCT-116
HCT-15 = tested on: HCT-15
HL-60 = tested on: HL-60
HOP-62 = tested on: HOP-62
HOP-92 = tested on: HOP-92
HT-29 = tested on: HT-29
Hs-578T = tested on: Hs-578T
IGROV-1 = tested on: IGROV-1
K562 = tested on: K562
KM12 = tested on: KM12
LOX IMVI = tested on: LOX IMVI
M14 = tested on: M14
MCF7 = tested on: MCF7
MDA-MB-231 = tested on: MDA-MB-231
MDA-MB-435 = tested on: MDA-MB-435
MDA-N = tested on: MDA-N
MOLT-4 = tested on: MOLT-4
Malme-3M = tested on: Malme-3M
NCI-H23 = tested on: NCI-H23
NCI-H460 = tested on: NCI-H460
NCI-H522 = tested on: NCI-H522
NCI/ADR-RES = tested on: NCI/ADR-RES
OVCAR-3 = tested on: OVCAR-3
OVCAR-4 = tested on: OVCAR-4
OVCAR-5 = tested on: OVCAR-5
OVCAR-8 = tested on: OVCAR-8
PC-3 = tested on: PC-3
RPMI-8226 = tested on: RPMI-8226
RXF 393 = tested on: RXF 393
SF-268 = tested on: SF-268
SF-295 = tested on: SF-295
SF-539 = tested on: SF-539
SK-MEL-28 = tested on: SK-MEL-28
SK-MEL-2 = tested on: SK-MEL-2
SK-MEL-5 = tested on: SK-MEL-5
SK-OV-3 = tested on: SK-OV-3
SN12C = tested on: SN12C
SNB-19 = tested on: SNB-19
SR = tested on: SR
SW-620 = tested on: SW-620
T47D = tested on: T47D
TK-10 = tested on: TK-10
U-251 = tested on: U-251
UACC-257 = tested on: UACC-257
UACC-62 = tested on: UACC-62
UO-31 = tested on: UO-31
NCI-H226 = tested on: NCI-H226
HCC 2998 = tested on: HCC 2998
SNB-75 = tested on: SNB-75

SMILES: CN(C)CCCNC(=O)c1cc2/c(=C\c3ccc(N(C)C)cc3)c3ccccc3n2[n+]1C
- GI50 (786-0): 52.8 µM (inactive)
- GI50 (A498): 6.04 µM (inactive)
- GI50 (A549): > 100 µM (inactive)
- GI50 (ACHN): > 100 µM (inactive)
- GI50 (BT-549): 63.7 µM (inactive)
- GI50 (CAKI-1): > 100 µM (inactive)
- GI50 (CCRF-CEM): 35.1 µM (inactive)
- GI50 (COLO 205): 8.73 µM (inactive)
- GI50 (DU-145): > 100 µM (inactive)
- GI50 (EKVX): 17.9 µM (inactive)
- GI50 (HCT-116): 26.2 µM (inactive)
- GI50 (HCT-15): > 100 µM
- GI50 (HL-60): 11.9 µM (inactive)
- GI50 (HOP-62): 48.3 µM (inactive)
- GI50 (HOP-92): 22.9 µM (inactive)
- GI50 (HT-29): 27.5 µM (inactive)
- GI50 (Hs-578T): > 100 µM (inactive)
- GI50 (IGROV-1): 15.7 µM (inactive)
- GI50 (K562): 8.83 µM (inactive)
- GI50 (KM12): 24.7 µM (inactive)
- GI50 (LOX IMVI): 42 µM (inactive)
- GI50 (M14): 21.4 µM (inactive)
- GI50 (MCF7): 21.8 µM (inactive)
- GI50 (MDA-MB-231): 21.5 µM (inactive)
- GI50 (MDA-MB-435): 24.9 µM (inactive)
- GI50 (MDA-N): 24.4 µM (inactive)
- GI50 (MOLT-4): 34.8 µM (inactive)
- GI50 (Malme-3M): 23.1 µM (inactive)
- GI50 (NCI-H23): 21.3 µM (inactive)
- GI50 (NCI-H460): 51.2 µM (inactive)
- GI50 (NCI-H522): 2.64 µM (inactive)
- GI50 (NCI/ADR-RES): > 100 µM (inactive)
- GI50 (OVCAR-3): 15.4 µM (inactive)
- GI50 (OVCAR-4): 8.77 µM (inactive)
- GI50 (OVCAR-5): 56.6 µM (inactive)
- GI50 (OVCAR-8): 40.8 µM (inactive)
- GI50 (PC-3): 39.5 µM (inactive)
- GI50 (RPMI-8226): 20.4 µM (inactive)
- GI50 (RXF 393): > 100 µM (inactive)
- GI50 (SF-268): 32.6 µM (inactive)
- GI50 (SF-295): 40.3 µM (inactive)
- GI50 (SF-539): 21.2 µM (inactive)
- GI50 (SK-MEL-28): 30.8 µM (inactive)
- GI50 (SK-MEL-2): 17.6 µM (inactive)
- GI50 (SK-MEL-5): 15.6 µM (inactive)
- GI50 (SK-OV-3): > 100 µM (inactive)
- GI50 (SN12C): 1.58 µM (inactive)
- GI50 (SNB-19): 24.8 µM (inactive)
- GI50 (SR): 23.3 µM (inactive)
- GI50 (SW-620): 31.1 µM (inactive)
- GI50 (T47D): 1.45 µM (inactive)
- GI50 (TK-10): 90.6 µM (inactive)
- GI50 (U-251): 22.4 µM (inactive)
- GI50 (UACC-257): 21.4 µM (inactive)
- GI50 (UACC-62): 17.3 µM (inactive)
- GI50 (UO-31): > 100 µM (inactive)

SMILES: CC1(C)Cc2c(sc3[nH]c(=S)[nH]c(=S)c23)CS1
- GI50 (786-0): 85.9 µM (inactive)
- GI50 (A498): 33 µM (inactive)
- GI50 (A549): 59.2 µM (inactive)
- GI50 (BT-549): 46.3 µM (inactive)
- GI50 (CAKI-1): 30.5 µM (inactive)
- GI50 (CCRF-CEM): 29.4 µM (inactive)
- GI50 (COLO 205): 32.1 µM (inactive)
- GI50 (DU-145): > 100 µM (inactive)
- GI50 (HCT-116): 47 µM (inactive)
- GI50 (HCT-15): 33.3 µM
- GI50 (HL-60): 33.2 µM (inactive)
- GI50 (HOP-62): 88.3 µM (inactive)
- GI50 (HOP-92): 12.4 µM (inactive)
- GI50 (HT-29): 27.1 µM (inactive)
- GI50 (Hs-578T): 45.2 µM (inactive)
- GI50 (IGROV-1): 29.9 µM (inactive)
- GI50 (K562): 29.2 µM (inactive)
- GI50 (KM12): 45.8 µM (inactive)
- GI50 (LOX IMVI): 32.8 µM (inactive)
- GI50 (M14): 30.2 µM (inactive)
- GI50 (MCF7): 32.8 µM (inactive)
- GI50 (MDA-MB-231): 66.8 µM (inactive)
- GI50 (MDA-MB-435): 29.9 µM (inactive)
- GI50 (MDA-N): 33.9 µM (inactive)
- GI50 (MOLT-4): 43 µM (inactive)
- GI50 (Malme-3M): 20.6 µM (inactive)
- GI50 (NCI-H226): 44.5 µM (inactive)
- GI50 (NCI-H23): 55.3 µM (inactive)
- GI50 (NCI-H460): 40.2 µM (inactive)
- GI50 (NCI/ADR-RES): 43.4 µM (inactive)
- GI50 (OVCAR-3): 26.2 µM (inactive)
- GI50 (OVCAR-4): 18.2 µM (inactive)
- GI50 (OVCAR-8): 90.2 µM (inactive)
- GI50 (PC-3): 25.4 µM (inactive)
- GI50 (RPMI-8226): 25.1 µM (inactive)
- GI50 (RXF 393): 60.8 µM (inactive)
- GI50 (SF-268): 32.7 µM (inactive)
- GI50 (SF-539): 37.9 µM (inactive)
- GI50 (SK-MEL-28): 22.4 µM (inactive)
- GI50 (SK-MEL-2): 38.4 µM (inactive)
- GI50 (SK-MEL-5): 29.6 µM (inactive)
- GI50 (SK-OV-3): 27.7 µM (inactive)
- GI50 (SN12C): 40.5 µM (inactive)
- GI50 (SNB-19): 54.8 µM (inactive)
- GI50 (SR): 48.6 µM (inactive)
- GI50 (SW-620): 53.1 µM (inactive)
- GI50 (T47D): 20.3 µM (inactive)
- GI50 (TK-10): 95.5 µM (inactive)
- GI50 (U-251): 41.9 µM (inactive)
- GI50 (UACC-257): 18.2 µM (inactive)
- GI50 (UACC-62): 18.5 µM (inactive)
- GI50 (UO-31): 31.8 µM (inactive)

SMILES: O=c1oc2ccccc2c(Nc2ccc3c(c2)S(=O)(=O)c2ccccc2O3)c1[N+](=O)[O-]
- GI50 (786-0): 21.1 µM (inactive)
- GI50 (A549): 28.1 µM (inactive)
- GI50 (ACHN): 22.1 µM (inactive)
- GI50 (BT-549): 24.2 µM (inactive)
- GI50 (CAKI-1): 17.8 µM (inactive)
- GI50 (CCRF-CEM): 23.6 µM (inactive)
- GI50 (COLO 205): 22.3 µM (inactive)
- GI50 (DU-145): 27.6 µM (inactive)
- GI50 (EKVX): 30.6 µM (inactive)
- GI50 (HCC 2998): 18.5 µM (inactive)
- GI50 (HCT-116): 23.7 µM (inactive)
- GI50 (HCT-15): 25.8 µM
- GI50 (HL-60): 27.3 µM (inactive)
- GI50 (HOP-62): 30 µM (inactive)
- GI50 (HOP-92): 20 µM (inactive)
- GI50 (HT-29): 34.5 µM (inactive)
- GI50 (Hs-578T): 36.7 µM (inactive)
- GI50 (IGROV-1): 21.6 µM (inactive)
- GI50 (K562): 20.6 µM (inactive)
- GI50 (KM12): 28.9 µM (inactive)
- GI50 (LOX IMVI): 27 µM (inactive)
- GI50 (M14): 26.2 µM (inactive)
- GI50 (MCF7): 21.8 µM (inactive)
- GI50 (MDA-MB-231): 24.5 µM (inactive)
- GI50 (MDA-MB-435): 23.4 µM (inactive)
- GI50 (MDA-N): 22.5 µM (inactive)
- GI50 (Malme-3M): 23.5 µM (inactive)
- GI50 (NCI-H226): 25.7 µM (inactive)
- GI50 (NCI-H23): 23.5 µM (inactive)
- GI50 (NCI-H460): 25.5 µM (inactive)
- GI50 (NCI-H522): 19.7 µM (inactive)
- GI50 (NCI/ADR-RES): 34.4 µM (inactive)
- GI50 (OVCAR-3): 20.8 µM (inactive)
- GI50 (OVCAR-4): 20 µM (inactive)
- GI50 (OVCAR-5): 70 µM (inactive)
- GI50 (OVCAR-8): 25.2 µM (inactive)
- GI50 (PC-3): 21.5 µM (inactive)
- GI50 (RPMI-8226): 19.5 µM (inactive)
- GI50 (RXF 393): 19.5 µM (inactive)
- GI50 (SF-268): 33.8 µM (inactive)
- GI50 (SF-295): 24.8 µM (inactive)
- GI50 (SF-539): 25.3 µM (inactive)
- GI50 (SK-MEL-28): 18.1 µM (inactive)
- GI50 (SK-MEL-2): 19.3 µM (inactive)
- GI50 (SK-MEL-5): 20.1 µM (inactive)
- GI50 (SK-OV-3): 24 µM (inactive)
- GI50 (SN12C): 25.6 µM (inactive)
- GI50 (SNB-19): 26.9 µM (inactive)
- GI50 (SNB-75): 22 µM (inactive)
- GI50 (SR): 22 µM (inactive)
- GI50 (SW-620): 32.8 µM (inactive)
- GI50 (T47D): 18.7 µM (inactive)
- GI50 (TK-10): 22.4 µM (inactive)
- GI50 (U-251): 19.7 µM (inactive)
- GI50 (UACC-257): 19.5 µM (inactive)
- GI50 (UACC-62): 14.5 µM (inactive)
- GI50 (UO-31): 33.4 µM (inactive)
